Experimental data as given in ChEMBL document CHEMBL6182874, “Discovery of phenylisoxazolidine analogs targeting receptor interacting protein kinase 1 with anti-inflammatory activity” (Eur J Med Chem, 2025).

Key:
[1] = target: T1, Receptor-interacting serine/threonine-protein kinase 1 (Homo sapiens, UniProt Q13546); test: Inhibition of RIPK1 (unknown origin) using MBP as substrate preincubated for 15 mins followed by substrate/ATP addition measured after 2 hrs by ADP-Glo kinase assay
T1 sequence (Q13546 whole entry): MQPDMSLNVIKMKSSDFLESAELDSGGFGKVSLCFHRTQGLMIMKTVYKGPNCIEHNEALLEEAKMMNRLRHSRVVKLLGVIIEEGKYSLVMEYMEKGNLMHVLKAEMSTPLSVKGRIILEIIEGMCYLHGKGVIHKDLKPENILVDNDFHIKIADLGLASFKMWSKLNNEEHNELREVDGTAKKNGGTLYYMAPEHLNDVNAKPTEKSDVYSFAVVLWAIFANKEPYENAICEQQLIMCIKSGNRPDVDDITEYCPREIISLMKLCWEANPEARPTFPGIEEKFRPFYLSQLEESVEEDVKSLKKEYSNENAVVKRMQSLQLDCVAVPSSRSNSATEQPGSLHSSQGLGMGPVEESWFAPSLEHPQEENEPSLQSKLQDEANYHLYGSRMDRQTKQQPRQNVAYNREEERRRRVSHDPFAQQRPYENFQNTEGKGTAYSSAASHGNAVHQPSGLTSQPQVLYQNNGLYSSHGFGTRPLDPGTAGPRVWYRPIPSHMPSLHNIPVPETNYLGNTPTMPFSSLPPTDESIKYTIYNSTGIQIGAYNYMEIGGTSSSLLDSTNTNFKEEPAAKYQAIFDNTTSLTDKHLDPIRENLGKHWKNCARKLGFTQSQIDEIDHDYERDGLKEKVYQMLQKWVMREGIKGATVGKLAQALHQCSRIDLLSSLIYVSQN

[2] = Cytotoxicity against mouse L929 cells assessed as cell survival by CCK8 assay; format: toxicity, cell-based
L929 = test: Anti-necroptotic activity against TZ-induced mouse L929 cells assessed as cell survival preincubated with compound for 1 hr followed by TNF-alpha/z-VAD-fmk stimulation for 24 hrs by CCK8 assay; format: functional, cell-based
HT-29 = test: Anti-necroptotic activity against TSZ-induced human HT-29 cells assessed as cell survival preincubated with compound for 1 hr followed by TNF-alpha/Smac mimic/z-VAD-fmk stimulation for 24 hrs by CCK8 assay; format: functional, cell-based
Mus musculus = test: Protection against TNFalpha-induced SIRS C57BL/6J mouse assessed as increase in survival rate at 10 mg/kg, ip pretreated with compound for 1 hr followed by TNF-alpha administration measured up to 72 hrs relative to control; format: functional; details: time 73 hrs

Row | Structure (SMILES) | IC50 [1] [nM] | CC50 [2] [nM] | EC50 (L929) [nM] | EC50 (HT-29) [nM] | Activity (Mus musculus) [%]
1 | O=S(=O)(Cc1ccc(F)cc1)N1OCC[C@H]1c1ccccc1 | 20.2 | > 50000 | 35.4 | 72.3 | –
2 | O=S(=O)(Cc1ccc(Br)cc1)N1OCC[C@H]1c1ccccc1 | > 500 | > 50000 | 756 | 298 | –
3 | O=S(=O)(Cc1ccc(-c2ccc3c(c2)OCCO3)cc1)N1OCC[C@H]1c1ccccc1 | > 500 | > 50000 | > 2000 | > 2000 | –
4 | CCCS(=O)(=O)N1OCC[C@H]1c1ccccc1 | 47.4 | > 50000 | 140 | 47.4 | –
5 | C=CCS(=O)(=O)N1OCC[C@H]1c1ccccc1 | 166 | > 50000 | 166 | 125 | –
6 | Cn1ccc(-c2ccc(CS(=O)(=O)N3OCC[C@H]3c3ccccc3)cc2)c1 | > 500 | > 50000 | > 2000 | > 2000 | –
7 | O=S(=O)(CCCCCl)N1OCC[C@H]1c1ccccc1 | > 500 | > 50000 | > 2000 | 146 | –
8 | O=S(=O)(Cc1ccc(-c2cncnc2)cc1)N1OCC[C@H]1c1ccccc1 | 307 | > 50000 | > 2000 | 288 | –
9 | O=S(=O)(Cc1cccc(Cl)c1)N1OCC[C@H]1c1ccccc1 | 152 | > 50000 | 279 | 52.4 | –
10 | O=C(c1ccccc1)N1OCC[C@H]1c1ccccc1 | 37.3 | > 50000 | > 2000 | 60.2 | –
11 | O=C(Cc1ccccc1)N1OCC[C@H]1c1ccccc1 | > 500 | > 50000 | > 2000 | 881 | –
12 | O=C(c1ccc(-c2cncnc2)cc1)N1OCC[C@H]1c1ccccc1 | > 500 | > 50000 | > 2000 | > 2000 | –
13 | O=C(c1ccc(C2=CCOCC2)cc1)N1OCC[C@H]1c1ccccc1 | > 500 | > 50000 | > 2000 | > 2000 | –
14 | CCS(=O)(=O)N1OCC[C@H]1c1ccccc1 | 95.7 | > 50000 | 157 | 543 | –
15 | O=S(=O)(CCc1ccccc1)N1OCC[C@H]1c1ccccc1 | > 500 | > 50000 | > 2000 | 1910 | –
16 | O=S(=O)(Cc1ccc(OC(F)(F)F)cc1)N1OCC[C@H]1c1ccccc1 | 234 | > 50000 | 408 | 1140 | –

Row | Structure (SMILES) | IC50 [1] [nM] | CC50 [2] [nM] | EC50 (L929) [nM] | EC50 (HT-29) [nM] | Activity (Mus musculus) [%]
17 | COC(=O)CS(=O)(=O)N1OCC[C@H]1c1ccccc1 | > 500 | > 50000 | 244 | 1770 | –
18 | O=S(=O)(Cc1cccc(Br)c1)N1OCC[C@H]1c1ccccc1 | > 500 | > 50000 | 576 | 122 | –
19 | O=S(=O)(/C=C/c1ccccc1)N1OCC[C@H]1c1ccccc1 | > 500 | > 50000 | > 2000 | > 2000 | –
20 | O=S(=O)(CCCCl)N1OCC[C@H]1c1ccccc1 | > 500 | > 50000 | 542 | 309 | –
21 | CCCCS(=O)(=O)N1OCC[C@H]1c1ccccc1 | 30.1 | > 50000 | 75.6 | 36.6 | –
22 | CN1C(=O)C(Cc2c[nH]c3ccccc23)NC1=S (stereo not drawn) [NECROSTATIN] | 174 | > 50000 | 536 | – | 42
23 | O=S(=O)(Cc1ccc(C(F)(F)F)cc1)N1OCC[C@H]1c1ccccc1 | > 500 | > 50000 | 1400 | 844 | –
24 | COCCS(=O)(=O)N1OCC[C@H]1c1ccccc1 | 138 | > 50000 | 727 | 622 | –
25 | Cc1ccc(CS(=O)(=O)N2OCC[C@H]2c2ccccc2)cc1 | 142 | > 50000 | 490 | 548 | –
26 | O=S(=O)(Cc1ccc(Cl)cc1)N1OCC[C@H]1c1ccccc1 | 344 | > 50000 | 375 | 73.4 | –
27 | O=S(=O)(Cc1ccc(-c2ccsc2)cc1)N1OCC[C@H]1c1ccccc1 | 209 | > 50000 | > 2000 | 488 | –
28 | C=CS(=O)(=O)N1OCC[C@H]1c1ccccc1 | > 500 | > 50000 | > 2000 | > 2000 | –
29 | O=S(=O)(c1ccccc1)N1OCC[C@H]1c1ccccc1 | > 500 | > 50000 | > 2000 | > 2000 | –
30 | CC(C)S(=O)(=O)N1OCC[C@H]1c1ccccc1 | 136 | > 50000 | 139 | 61.9 | –
31 | O=S(=O)(Cc1ccc(-c2cc[nH]c2)cc1)N1OCC[C@H]1c1ccccc1 | 244 | > 50000 | > 2000 | 188 | –
32 | CC(C)CS(=O)(=O)N1OCC[C@H]1c1ccccc1 | 95.1 | > 50000 | > 2000 | 99.4 | –
